Where “and” joins values, the source holds several entries; their conditions need not be identical. Equal values may be shown once. Where a name gives a salt, the structure may show the parent alone. Read-outs that look alike come from different tables or passages of the source.
Legend:
[1] = Crystallisation peak temperature on heating (Tn), DSC; format: physicochemical; conditions: for Tn (16° C./min): 1% salt deposited from solution on PET; for Tn(composition)-Tn(polyester): PET I.V. 0.73 + 1% salt, 2-roll mill 300 °C 2 min, 10 °C/minute
Experimental: In one such DSC technique the crystallisation peak temperature difference, Tn(composition)--Tn(polyester) is determined by measuring the crystallisation peak temperatures on heating for the composition in comparison with the polyester of the composition not containing the ionisable salt. The detailed procedure is as follows. Compositions were prepared from the polyester and the additive by mixing on a 2-roll mill at 300° C. for 2 minutes. The sample was taken from the mill and pressed into a film in a compression moulding machine. 10 mg samples of the composition were placed in a capsule, rapidly heated to 290° C. and maintained at that temperature for 1 minute. The capsule was then dropped into water to quench the polymer and prevent crystallisation. The sample was then placed in a Perkin Elmer DSC 2 machine and heated at a rate of 10° C./minute until reaching a temperature of 290° C. The crystallisation peak temperature observed on this heating cycle is recorded and compared with the value for the polyester not containing the additive.
Samples of polyethylene terephthalate (I.V. =0.73) containing 1% of the salts listed in Table 2 were prepared by compounding at 300° C. on a 2-roll mill for 2 minutes. The samples were evaluated to determine Tn(composition-Tn(polyester), the total number of end groups, the number of carboxylate groups and the number of hydroxyl and carboxyl groups.
The salts listed in Table 3 were deposited from solution on the surface of polyethylene terephthalate chip to give a concentration of 1% by weight of salt. The product was dried under vcuum at 96° C. for 3 hours. The compositions were pressed into film using a temperature of 280° C. for 1 minute. The DSC measurements were made after quenching from the melt to prevent crystallisation and using a heating rate of 16° C./minute.
1% by weight of the sodium salt of saccharin was deposited on the surface of granules of a polyethylene terephthalate homopolymer of I.V. =0.73 by evaporating an aqueous solution of the salt from the granules by drying at 96° C. under vacuum for 3 hours. The granules obtained were compression moulded into film by pressing at 280° C. for 60 second. The film was used for measurements of Tn at a heating rate of 16° C./minute.
The effect of the salts listed in Table 4 was determined by taking granules of a polymer of poly(ethylene terephthalate) homopolymer having an intrinsic viscosity of 0.73 and evaporating a solution of the salt in methanol or water from the surface of the granules by drying at 96° C. under vacuum for 3 hours. The proportions of polymer and solution used were such as to give a concentration of 1% of salt by weight of the final dry composition. The granules obtained were compression-moulded into film at 280° C. for various periods of time. The film was used for measurement of Tn as hereinbefore described.
Two samples of polyethylene terephthalate chip (I.V. =0.73) were coated from solution with 1% of the sodium salt of o-hydroxybenzoic acid and the disodium salt of the same acid respectively. After drying for 3 hours in a vacuum oven at 95° C. films were prepared by pressing the products for 1 minute at 280° C.

[2] = Degradation constant K (melt degradation performance); format: physicochemical; parameters: unit not given here; conditions: 1% salt deposited from solution on PET (Examples 13-15)
End group determination = format: physicochemical
Experimental: The numbers of hydroxyl and carboxyl groups were also determined according to the procedure given in this paper.
[…] The samples were evaluated to determine Tn(composition-Tn(polyester), the total number of end groups, the number of carboxylate groups and the number of hydroxyl and carboxyl groups.

[3] = Half-crystallisation time (t1/2), isothermal DSC; format: physicochemical
Experimental: A DSC 2 Perkin Elmer scanning calorimeter was used.
10 mg of the sample of polymer material are placed in a capsule and introduced into the apparatus, wherein the sample is quickly heated to a temperature of 290° C. at which it is maintained during 1 minute.
The molten polymer material is then very quickly cooled by means of liquid air (at a rate of 320° C. per minute) until the crystallisation temperature is reached.
The crystallisation isotherm is registered on a temperature-time graph and the peak appearing on the registered isotherm is taken as the half-crystallisation time (t1/2).

[4] = Degradation constant K (melt degradation performance); format: physicochemical; parameters: unit not given here; conditions: 1% salt in PET, 2-roll mill 270 °C 5 min; molten state 290 °C
Experimental: The melt degradation performance is a measure of the extent of degradation under molten conditions. A convenient method of quantifying the performance is by measuring the "K value". A method for determining this value in the molten state using an Instron Capillary rheometer is given in a paper by J. Devaux et al in Makromol.
This method is carried out on samples prepared by reacting the salt with the polyester on a 2 roll-mill at a temperature above the melting point of the polyester for 5 minutes and then pressing the product obtained into a 2 mm thick sheet using the same temperature for 3 minutes before cooling to room temperature. The method is described for polyethylene terephthalate but can be readily adapted for other polyesters.
For polyethylene terephthalate the K value in the presence of salt should be less than 60.

[5] = ΔT = Tc(cooling) - Tn(heating), DSC; format: physicochemical; conditions: 1% salt in PET, 2-roll mill 270 °C 5 min; 10 °C/minute
Experimental: An alternative method for assessing the effectiveness of nucleation of an additive is to compare the difference between the value of the crystallisation peak on cooling (Tc) with that on heating (Tn) for a composition containing an ionisable salt. The value obtained from this comparison, Tc(cooling) -Tn(heating) is termed ΔT. […] Samples of polyester together with 1% of the salt under test were mixed in a 2-roll mill at 270° C. for 5 minutes. The sample produced was pressed into 2 mm thick sheets at 270° C. for 3 minutes and then cooled to room temperature. 10 mg of the sample was placed in a capsule and rapidly heated to 290° C. After maintaining this temperature for 1 minute the capsule was quenched in water. The crystallisation peak temperatures on heating (Tn) and cooling (Tc) were determined using heating and cooling rates of 10° C./minute on a Perkin Elmer DSC 2 machine.

[6] = Solubility parameter δ of the acid; conditions: product for the acid
[7] = cited from earlier work
[8] = Crystallisation peak temperature on heating (Tn), DSC, block copolymer; format: physicochemical; conditions: 1% salt from solution on block copolymer; heating rate 16 °C/minute
Experimental: A block copolymer containing 5% by weight of polyethylene glycol units of molecular weight 1540 in chip form was blended with a solution of the sodium salt of o-chlorobenzoic acid to give a salt concentration of 1% by weight of the polyester. Samples were prepared for DSC analysis using the procedure of Example 15.
The polymer used in Example 16 and 1% of the disodium salt of o-hydroxy benzoic acid were compounded on a 2-roll mill at 270° C. for 2 minutes. […] (measured at a heating rate of 10° C./minute).

[9] = pressed 280 °C 1 minute, heating rate 16 °C/minute
[10] = 1% salt deposited from solution on PET chip, pressed 280 °C 1 minute
[11] = 110 °C, 1% salt in PET, 2-roll mill 270 °C 5 min, after melting 1 minute at 290 °C
[12] = 120 °C, 1% salt in PET, 2-roll mill 270 °C 5 min, after melting 1 minute at 290 °C
[13] = PET I.V. 0.73 + 1% salt, 2-roll mill 300 °C 2 min
[14] = acid from which the salt is derived, in water

Row | Compound | t1/2 (sec) 110° C. [3, 11] | t1/2 (sec) 120° C. [3, 12] | K [4] | ΔT [5] | δ × pKH.sbsb.2O [6] | pKH.sbsb.2O [7, 14] | also measured
1 | O=C1NS(=O)(=O)c2ccccc21 [sodium salt of saccharin] | – | – | – | – | – | – | Tn (16° C./min) [1, 9]: 112 °C; K [2]: 9
2 | O=C(O)c1cccs1 [Sodium salt of 2-thiophencarboxylic acid] | – | – | – | – | – | – | Tn(comp.)-Tn(PET) (16° C./min) ([1]; 1% salt deposited from solution on PET chip, pressed 280 °C 1 minute, heating rate 16 °C/minute): 29 °C; Tn (16° C./min) [1, 9]: 112 °C; End Groups --COOH (End group determination; [10]): 24 moles × 10^-6 g^-1; End Groups --OH (End group determination; [10]): 59 moles × 10^-6 g^-1; End Groups Total from solution I.V. (End group determination; [10]): 145 moles × 10^-6 g^-1; K [2]: 15
3 | O=C(O)c1ccc(Cl)cc1Cl [2,4-dichlorobenzoic acid] | 60 s | 35 s | 65 | 109 °C | 34 | 2.8 | Tn(composition)-Tn(polyester) [1]: 23 °C; % of carboxylate end group (End group determination; [13]): 16.7%; End Groups --COOH (End group determination; [13]): 67 moles × 10^-6 g^-1; End Groups --OH (End group determination; [13]): 55 moles × 10^-6 g^-1; End Groups Carboxylate (End group determination; [13]): 32 moles × 10^-6 g^-1; End Groups Total from solution I.V. (End group determination; [13]): 192 moles × 10^-6 g^-1
4 | O=C(O)c1ccc(F)cc1 [para fluorobenzoic acid] | 70 s | 38 s | 60 | 104 °C | 50 | 4.1 | –
5 | O=C(O)c1ccccc1Cl [ortho-chlorobenzoic acid] | 65 s | 36 s | 32 | 108 °C | 37 | – | Tn(composition)-Tn(polyester) [1]: 26 °C; % of carboxylate end group (End group determination; [13]): 22%; End Groups --COOH (End group determination; [13]): 45 moles × 10^-6 g^-1; End Groups --OH (End group determination; [13]): 55 moles × 10^-6 g^-1; End Groups Carboxylate (End group determination; [13]): 37 moles × 10^-6 g^-1; End Groups Total from solution I.V. (End group determination; [13]): 167 moles × 10^-6 g^-1; Tn [8]: 102 °C; pKH.sbsb.2O ([7]; water): 3
6 | O=C(O)c1ccc(Oc2ccccc2)cc1 [para-oxyphenylbenzoic acid] | – | – | 40 | 105 °C | 47 | 3.5 | t1/2 (sec) 110° C. [3]: 73 s; t1/2 (sec) 120° C. [3]: 38 s
7 | O=C(O)c1cccc(Cl)c1 [meta-chlorobenzoic acid] | – | – | 31 | 107 °C | 47 | 3.8 | t1/2 (sec) 110° C. [3]: 63 s; t1/2 (sec) 120° C. [3]: 40 s
8 | O=C(O)c1cccc([N+](=O)[O-])c1 [meta-nitrobenzoic acid] | – | – | 20 | 106 °C | 30 | – | t1/2 (sec) 110° C. [3]: 65 s; t1/2 (sec) 120° C. [3]: 45 s; pKH.sbsb.2O ([7]; water): 2.2
9 | O=C(O)c1ccc([N+](=O)[O-])cc1 [para-nitrobenzoic acid] | 75 s | 54 s | 79 | 102 °C | 46 | – | pKH.sbsb.2O ([7]; water): 3.4
10 | O=C(O)c1cc(O)ccc1O [2,5-dihydroxy benzoic acid] | – | – | 22 | 103 °C | – | 3 | t1/2 (sec) 110° C. [3]: 85 s; t1/2 (sec) 120° C. [3]: 48 s
11 | O=C(O)c1ccccc1O [ortho-hydroxy benzoic acid] | – | – | 26 | 105 °C | – | – | t1/2 (sec) 110° C. [3]: 80 s; t1/2 (sec) 120° C. [3]: 40 s; Tn (16° C./min) ([1]; pressed 280 °C 1 minute, heating rate 16 °C/minute, listed as sodium salt of o-hydroxybenzoic acid): 114 °C; K ([2]; listed as sodium salt of o-hydroxybenzoic acid): 26
12 | O=S(=O)(O)c1ccccc1 [Sodium benzene sulphonate, reference compound] | – | – | – | – | – | – | Tn [1]: 146 °C and 141.5 °C; Dissociation Constant ([7]; water): 2 × 10^-1
13 | O=C(O)c1c(O)cc(O)cc1O [2,4,6-dihydroxy benzoic acid] | 110 s | 50 s | 37 | 97 °C | 26 | 1.7 | –
14 | O=C(O)c1cc([N+](=O)[O-])cc([N+](=O)[O-])c1 [3,5-dinitrobenzoic acid] | 85 s | 45 s | 44 | 102 °C | 38 | 2.8 | –
15 | O=C(O)c1cc([N+](=O)[O-])ccc1Cl [2-chloro-5-nitrobenzoic acid] | 65 s | 40 s | 52 | 108 °C | 29 | – | pKH.sbsb.2O ([7]; water): 2.2
16 | O=C(O)c1ccc(O)cc1O [2,4-dihydroxy benzoic acid] | 95 s | 45 s | 35 | 99 °C | 47 | 3.2 | –
17 | O=C(O)c1cccc(O)c1 [metra-hydroxy benzoic acid] | 165 s | 55 s | 86 | 91 °C | 54 | 3.9 | –
18 | O=C(O)c1ccco1 [Sodium salt of 2-furoic acid] | – | – | – | – | – | – | Tn (16° C./min) [1, 9]: 127 °C; End Groups --COOH (End group determination; [10]): 29 moles × 10^-6 g^-1; End Groups --OH (End group determination; [10]): 62 moles × 10^-6 g^-1; End Groups Total from solution I.V. (End group determination; [10]): 121 moles × 10^-6 g^-1; K [2]: 65

— patent US4393178A, “Fast crystallizing polyester compositions” (priority 1979, dated 1983)
